Measurements: patent US10654884B2 (Vitae Pharmaceuticals, Inc., priority 2014, dated 2020)

Legend:
[1] = biological target: T1, human CD73 (Homo sapiens, UniProt P21589); assay: Inhibition of 5′-Nucleotidase Activity of CD73 (Assay 1); type: biochemical; details: human CD73 4 ng/ml, 50 μM CMP, 20 min at RT, malachite green readout; read-out: Assay 1: IC50, inhibition of 5′-nucleotidase activity of CD73
T1 construct: purchased R&D Systems 5795-EN-010
T1 sequence (P21589 27-549): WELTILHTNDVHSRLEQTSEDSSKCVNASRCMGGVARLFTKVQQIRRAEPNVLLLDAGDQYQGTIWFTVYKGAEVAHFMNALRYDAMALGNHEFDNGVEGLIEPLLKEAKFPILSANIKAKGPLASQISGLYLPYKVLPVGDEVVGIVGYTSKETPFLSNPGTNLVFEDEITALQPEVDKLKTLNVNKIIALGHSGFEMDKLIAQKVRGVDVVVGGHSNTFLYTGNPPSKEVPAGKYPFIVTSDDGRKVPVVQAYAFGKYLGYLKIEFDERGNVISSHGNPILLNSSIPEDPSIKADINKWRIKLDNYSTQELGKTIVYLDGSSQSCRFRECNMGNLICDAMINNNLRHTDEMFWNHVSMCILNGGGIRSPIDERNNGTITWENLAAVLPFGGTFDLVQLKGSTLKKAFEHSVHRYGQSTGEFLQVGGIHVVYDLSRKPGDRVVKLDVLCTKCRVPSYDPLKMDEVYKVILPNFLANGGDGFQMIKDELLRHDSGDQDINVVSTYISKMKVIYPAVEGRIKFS
Summary of the method: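 Human CD73 (4 ng/ml final) was incubated with 50 μM CMP in 25 mM Tris-HCl pH 7.4, 0.005% Brij-35 for 20 min at RT. Reactions were stopped with malachite green reagent and absorbance was read at 620 nm. IC50 came from a 4-parameter logistic fit.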

[2] = biological target: T2, CD73 on U138 neuroglioma cells (Homo sapiens, UniProt P21589); assay: Inhibition of Ecto-5′-Nucleotidase Activity in U138 Neuroglioma Cells (Assay 2); type: cell-based; details: 50 μM CMP, 2 hr at 37° C., malachite green readout, read-out: Assay 2: IC50, inhibition of ecto-5′-nucleotidase activity in U138 neuroglioma cells
T2 construct: U138 neuroglioma cells, which express CD73 on their surface; endogenous in cells; host or cells: U138 neuroglioma cells (ATCC)
T2 sequence (P21589 27-549): T1 sequence (P21589 27-549)
Summary of the method: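 Whole-cell CD73 activity in U138 human neuroglioma cells seeded the day before, washed free of phosphate, then given test compound dilutions with 50 μM CMP in HEPES-buffered saline, pH 7.4, DMSO ≤0.1%. Incubated 2 hr at 37° C; released inorganic phosphate in supernatant measured by malachite green; IC50 by nonlinear regression.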

| Structure (SMILES) | IC50 [1] | IC50 [2] |
| --- | --- | --- |
| CC(C)(C)OC(=O)[C@H](OC[C@H]1O[C@@H](n2cnc3c(N)nc(C#N)nc32)[C@H](O)[C@@H]1O)P(=O)(O)O (single isomer, unassigned) [Example 54] | < 100 nM | < 100 nM |
| CC(C)(C)OC(=O)[C@@H](OC[C@H]1O[C@@H](n2cnc3c(N)nc(C#N)nc32)[C@H](O)[C@@H]1O)P(=O)(O)O (single isomer, unassigned) [Example 54b] | < 100 nM | 100 to 1000 nM |
| Nc1nc(Cl)nc2c1ncn2[C@@H]1O[C@H](COC(C(=O)O)P(=O)(O)O)[C@@H](O)[C@H]1O (single isomer, unassigned) [Example 61] | < 100 nM | < 100 nM |
| Cc1nc(N)c2ncn([C@@H]3O[C@H](COC(C(=O)O)P(=O)(O)O)[C@@H](O)[C@H]3O)c2n1 (single isomer, unassigned) [Example 69a] | 100 to 1000 nM | > 1000 nM |
| CCOC(=O)[C@H](OC[C@H]1C[C@@H](n2cnc3cccc(Cl)c3c2=O)[C@H](O)[C@@H]1O)P(=O)(O)O (single isomer, unassigned) [Example 70] | 100 to 1000 nM | > 1000 nM |
| CCOC(=O)[C@H](OC[C@H]1C[C@@H](n2cnc3cccc(Br)c3c2=O)[C@H](O)[C@@H]1O)P(=O)(O)O (single isomer, unassigned) [Example 72] | 100 to 1000 nM | > 1000 nM |
| CCOC(=O)C(OC[C@H]1C[C@@H](n2cnc3c(N)nc(Cl)nc32)[C@H](O)[C@@H]1O)P(=O)(O)O (single isomer, unassigned) [Example 76] | < 100 nM | < 100 nM |
| CCOC(=O)C(OC[C@H]1C[C@@H](n2cnc3c(N)nc(Cl)nc32)[C@H](O)[C@@H]1O)P(=O)(O)O (single isomer, unassigned) [Example 76a] | 100 to 1000 nM | 100 to 1000 nM |
| CCOC(=O)C(OC[C@H]1C[C@@H](n2nnc3c(N)nc(Cl)nc32)[C@H](O)[C@@H]1O)P(=O)(O)O (single isomer, unassigned) [Example 77] | < 100 nM | 100 to 1000 nM |
| CCOC(=O)C(OC[C@H]1C[C@@H](n2nnc3c(N)nc(Br)nc32)[C@H](O)[C@@H]1O)P(=O)(O)O (single isomer, unassigned) [Example 77a] | < 100 nM | 100 to 1000 nM |
| CC(C)(C)OC(=O)C(OC[C@H]1C[C@@H](n2cnc3c(N)nc(Cl)nc32)[C@H](O)[C@@H]1O)P(=O)(O)O (single isomer, unassigned) [Example 78] | < 100 nM | 100 to 1000 nM |
| CC(C)(C)OC(=O)C(OC[C@H]1C[C@@H](n2cnc3c(N)nc(Cl)nc32)[C@H](O)[C@@H]1O)P(=O)(O)O (single isomer, unassigned) [Example 78a] | 100 to 1000 nM | > 1000 nM |
| CCOC(=O)[C@](CC(=O)O)(OC[C@H]1O[C@@H](n2cnc3c(N)nc(F)nc32)[C@H](O)[C@@H]1O)P(=O)(O)O (single isomer, unassigned) [Example 79] | 100 to 1000 nM | > 1000 nM |
| CCN(CC)C(=O)[C@@H](OC[C@H]1O[C@@H](n2cnc3c(N)nc(Cl)nc32)[C@H](O)[C@@H]1O)P(=O)(O)O (single isomer, unassigned) [Example 82] | < 100 nM | 100 to 1000 nM |
| CCN(CC)C(=O)[C@H](OC[C@H]1O[C@@H](n2cnc3c(N)nc(Cl)nc32)[C@H](O)[C@@H]1O)P(=O)(O)O (single isomer, unassigned) [Example 82a] | < 100 nM | 100 to 1000 nM |
| CCOC(=O)C(OC[C@H]1O[C@@H](n2cnc3ccc(Cl)nc32)[C@H](O)[C@@H]1O)P(=O)(O)O (single isomer, unassigned) [Example 87] | < 100 nM | 100 to 1000 nM |
| CNc1nc(Cl)nc2c1ncn2[C@@H]1O[C@H](COC(C(F)(F)F)P(=O)(O)O)[C@@H](O)[C@H]1O (single isomer, unassigned) [Example 100] | 100 to 1000 nM | < 100 nM |
| CNc1nc(Cl)nc2c1ncn2[C@@H]1O[C@H](COC(C(F)(F)F)P(=O)(O)O)[C@@H](O)[C@H]1O (single isomer, unassigned) [Example 100a] | < 100 nM | < 100 nM |
| CNc1nc(Cl)nc2c1ncn2[C@@H]1O[C@H](COC(C)(C(=O)O)C(=O)O)[C@@H](O)[C@H]1O [Example 2, (2-(((2R,3S,4R,5R)-5-(2-chloro-6-(methylamino)-9H-purin-9-yl)-3,4-dihydroxytetrahydrofuran-2-yl)methoxy)-2-methylmalonic Acid)] | 100 to 1000 nM | 100 to 1000 nM |
| Nc1nc(Cl)nc2c1ncn2[C@@H]1O[C@H](COC(C(=O)O)C(=O)O)[C@@H](O)[C@H]1O [Example 3, 2-(((2R,3S,4R,5R)-5-(6-amino-2-chloro-9H-purin-9-yl)-3,4-dihydroxytetrahydrofuran-2-yl)methoxy)malonic acid] | < 100 nM | 100 to 1000 nM |
| Nc1nc(Cl)nc2c1ncn2[C@@H]1O[C@H](COC(Cc2ccc(F)cc2)(C(=O)O)C(=O)O)[C@@H](O)[C@H]1O [Example 4, 2-(((2R,3S,4R,5R)-5-(6-amino-2-chloro-9H-purin-9-yl)-3,4-dihydroxytetrahydrofuran-2-yl)methoxy)-2-(4-fluorobenzyl)malonic acid] | < 100 nM | < 100 nM |
| COCC(OC[C@H]1O[C@@H](n2cnc3c(N)nc(Cl)nc32)[C@H](O)[C@@H]1O)(C(=O)O)C(=O)O [Example 5, 2-(((2R,3S,4R,5R)-5-(6-amino-2-chloro-9H-purin-9-yl)-3,4-dihydroxytetrahydrofuran-2-yl)methoxy)-2-(methoxymethyl)malonic acid] | < 100 nM | < 100 nM |
| Nc1nc(Cl)nc2c1ncn2[C@@H]1O[C@H](COC(COCc2ccccc2)(C(=O)O)C(=O)O)[C@@H](O)[C@H]1O [Example 6, 2-(((2R,3S,4R,5R)-5-(6-amino-2-chloro-9H-purin-9-yl)-3,4-dihydroxytetrahydrofuran-2-yl)methoxy)-2-((benzyloxy)methyl)malonic acid] | < 100 nM | < 100 nM |
| Nc1nc(Cl)nc2c1ncn2[C@@H]1O[C@H](COC(Cc2ccccc2)(C(=O)O)C(=O)O)[C@@H](O)[C@H]1O [Example 7, 2-(((2R,3S,4R,5R)-5-(6-amino-2-chloro-9H-purin-9-yl)-3,4-dihydroxytetrahydrofuran-2-yl)methoxy)-2-benzylmalonic acid] | < 100 nM | < 100 nM |
| Nc1nc(Cl)nc2c1ncn2[C@@H]1O[C@H](CO[C@H](C(=O)OCc2ccccc2)P(=O)(O)O)[C@@H](O)[C@H]1O [Example 16a, ((S)-1-(((2R,3S,4R,5R)-5-(6-amino-2-chloro-9H-purin-9-yl)-3,4-dihydroxytetrahydrofuran-2-yl)methoxy)-2-(benzyloxy)-2-oxoethyl)phosphonic Acid] | 100 to 1000 nM | > 1000 nM |
| CC(=O)NNC(=O)C(OC[C@H]1O[C@@H](n2cnc3c(N)nc(Cl)nc32)[C@H](O)[C@@H]1O)P(=O)(O)O (stereo partly drawn) [Example 20, (2-(2-acetylhydrazinyl)-1-(((2R,3S,4R,5R)-5-(6-amino-2-chloro-9H-purin-9-yl)-3,4-dihydroxytetrahydrofuran-2-yl)methoxy)-2-oxoethyl)phosphonic Acid] | < 100 nM | 100 to 1000 nM |
| CCNc1nc(Cl)nc2c1ncn2[C@@H]1O[C@H](CO[C@@](C)(C(=O)OCC)P(=O)(O)O)[C@@H](O)[C@H]1O [Example 29, ((R)-2-(((2R,3S,4R,5R)-5-(2-chloro-6-(ethylamino)-9H-purin-9-yl)-3,4-dihydroxytetrahydrofuran-2-yl)methoxy)-1-ethoxy-1-oxopropan-2-yl)phosphonic Acid] | < 100 nM | < 100 nM |
| CCNc1nc(Cl)nc2c1ncn2[C@@H]1O[C@H](CO[C@](C)(C(=O)OCC)P(=O)(O)O)[C@@H](O)[C@H]1O [Example 29a, ((S)-2-(((2R,3S,4R,5R)-5-(2-chloro-6-(ethylamino)-9H-purin-9-yl)-3,4-dihydroxytetrahydrofuran-2-yl)methoxy)-1-ethoxy-1-oxopropan-2-yl)phosphonic Acid] | 100 to 1000 nM | 100 to 1000 nM |
| COc1nc(OC)c2ncn([C@@H]3O[C@H](COC(C(=O)OC(C)(C)C)P(=O)(O)O)[C@@H](O)[C@H]3O)c2n1 (stereo partly drawn) [Example 33, (2-(tert-butoxy)-1-(((2R,3S,4R,5R)-5-(2,6-dimethoxy-9H-purin-9-yl)-3,4-dihydroxytetrahydrofuran-2-yl)methoxy)-2-oxoethyl)phosphonic Acid] | 100 to 1000 nM | 100 to 1000 nM |
